Measurements from US20030134859A1 (SANKYO COMPANY, LIMITED, priority 2000, published 2003).

System: Mouse preadipocyte strain 3T3-L1
Assay: Inhibition of differentiation as an indication of acetic acid uptake
Assay type: cell-based
Settings: control (0.01% dimethylsulfoxide) = 100%; for activity at 0.1 µM: Mus musculus, 3T3-L1, 0.1 μM test substance, read-out: Rate of Uptake (%) of [2-14C] acetic acid
In short: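 Confluent 3T3-L1 cells induced to differentiate for 4 days (insulin, IBMX, dexamethasone, 5% FBS) with test compound at 0.1 μM final or 0.01% DMSO, then 2 days in insulin maintenance medium, at 37 °C, 10% CO2. [2-14C]acetic acid uptake over 1 hr counted by scintillation; expressed as % of DMSO control.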

SMILES	activity at 0.1 µM [%]	Rate of Uptake (%) of [2-14C] acetic acid (0.1 μM test substance) [%]
Cc1ccc(NC(=O)c2cc([N+](=O)[O-])ccc2Cl)cc1 [Example 1, N-(4-Methylphenyl)-(2-chloro-5-nitrophenyl)carboxamide]	64	
O=C(Nc1ccc(-c2ccccc2)cc1)c1cc([N+](=O)[O-])ccc1Cl [Example 2, N-(4-Phenylphenyl)-(2-chloro-5-nitrophenyl)carboxamide]	42.7	
Cc1cnc(NC(=O)c2cc([N+](=O)[O-])ccc2Cl)s1 [Example 4, N-(5-Methylthiazol-2-yl)-(2-chloro-5-nitrophenyl)carboxamide]	92.5	
O=C(Nc1cccc(-c2ccccc2)c1)c1cc([N+](=O)[O-])ccc1Cl [Example 5, N-(3-Phenylphenyl)-(2-chloro-5-nitrophenyl)carboxamide]	43.4	
COc1ccc(NC(=O)c2cc([N+](=O)[O-])ccc2Cl)cc1-c1ccccc1 [Example 6, N-(4-Methoxy-3-phenyl)phenyl-(2-chloro-5-nitrophenyl)carboxamide]	55.8	
O=C(Nc1ccccc1-c1ccccc1)c1cc([N+](=O)[O-])ccc1Cl [Example 7, N-(2-Phenylphenyl)-(2-chloro-5-nitrophenyl)carboxamide]	65	
O=C(Nc1ccc(-c2ccccn2)cc1)c1cc([N+](=O)[O-])ccc1Cl [Example 8, N-[4-(2-Pyridyl)phenyl]-(2-chloro-5-nitrophenyl)carboxamide]		47.2
Cc1ccc2nc(-c3ccc(NC(=O)c4cc([N+](=O)[O-])ccc4Cl)cc3)sc2c1 [Example 10, N-[4-(6-Methylbenzothiazol-2-yl)phenyl]-(2-chloro-5-nitrophenyl)carboxamide]	85.3	
CCCCCc1ccc(NC(=O)c2cc([N+](=O)[O-])ccc2Cl)cc1 [Example 16, N-(4-Pentylphenyl)-(2-chloro-5-nitrophenyl)carboxamide]	83.7	
N#Cc1ccc(NC(=O)c2cc([N+](=O)[O-])ccc2Cl)cc1 [Example 20, N-(4-Cyanophenyl)-(2-chloro-5-nitrophenyl)carboxamide]	65.9	
CCOC(=O)c1ccc(NC(=O)c2cc([N+](=O)[O-])ccc2Cl)cc1 [Example 26, N-(4-Ethoxycarbonylphenyl)-(2-chloro-5-nitrophenyl)carboxamide]	87.5	
CC(C)(C)c1cc(NC(=O)c2cc([N+](=O)[O-])ccc2Cl)cc(C(C)(C)C)c1O [Example 29, N-(3,5-Di-t-butyl-4-hydroxyphenyl)-(2-chloro-5-nitrophenyl)carboxamide]	68.6	
O=C(Nc1cccc(NS(=O)(=O)c2ccccc2)c1)c1cc([N+](=O)[O-])ccc1Cl [Example 30, N-(3-Benzensulfonylaminophenyl)-(2-chloro-5-nitrophenyl)carboxamide]	60.1	
O=C(Nc1nc(-c2ccccc2)cs1)c1cc([N+](=O)[O-])ccc1Cl [Example 35, N-(4-Phenylthiazol-2-yl)-(2-chloro-5-nitrophenyl)carboxamide]	71.5	
O=C(Nc1nc(-c2cccnc2)cs1)c1cc([N+](=O)[O-])ccc1Cl [Example 37, N-[4-(3-Pyridyl)thiazol-2-yl)-(2-chloro-5-nitrophenyl)carboxamide]	38.6	
O=C(Nc1nc(-c2ccccn2)cs1)c1cc([N+](=O)[O-])ccc1Cl [Example 38, N-[4-(2-Pyridyl)thiazol-2-yl)-(2-chloro-5-nitrophenyl)carboxamide]	82	
Cc1ccccc1-c1csc(NC(=O)c2cc([N+](=O)[O-])ccc2Cl)n1 [Example 39, N-[4-(2-Methylphenyl)thiazol-2-yl]-(2-chloro-5-nitrophenyl)carboxamide]	62.5	
Cc1cccc(-c2csc(NC(=O)c3cc([N+](=O)[O-])ccc3Cl)n2)c1 [Example 40, N-[4-(3-Methylphenyl)thiazol-2-yl)-(2-chloro-5-nitrophenyl)carboxamide]	45.3	
